Assay results from patent US10464926B2, “Heterobicyclic compounds and their use for the treatment of tuberculosis” (OTSUKA PHARMACEUTICAL CO., LTD., priority 2014, dated 2019).

Compound	melting point
O=C1CCc2c(OC[C@]3(O)CCN(c4c(F)cc(OCC(F)(F)F)cc4F)C[C@H]3O)ccc(F)c2N1 (relative stereo) [Example 310]	201 to 202 °C
CO[C@H]1CN(c2ncc(Cl)cc2Cl)CC[C@]1(O)COc1ccc(F)c2c1CCC(=O)N2 (relative stereo)	162.8 to 164 °C
O=C1CCc2c(OC[C@]3(O)CCN(c4cc(F)c(Cl)cc4F)C[C@H]3O)ccc(F)c2N1	199 to 199.7 °C
O=C1CCc2c(OC[C@]3(O)CCN(c4ccc(Cl)cc4F)C[C@H]3F)ccc(F)c2N1 (relative stereo)	194 to 195 °C
Cc1ccc(N2CCC(O)(COc3ccc(F)c4c3CCC(=O)N4)CC2)cc1	181 °C
O=C1CCc2c(OCC3(O)CCN(c4c(Cl)cncc4Cl)CC3)ccc(F)c2N1	225.8 to 225.9 °C
COCCOc1ccc(N2CCC(O)(COc3ccc(F)c4c3CCC(=O)N4)CC2)c(F)c1	174 °C
COCCOc1cc(N2CCC(O)(COc3ccc(F)c4c3CCC(=O)N4)CC2)c(F)cc1Cl	170.6 to 170.8 °C
O=C1CCc2c(OCC3(O)CCN(c4c(F)cc(F)cc4Cl)CC3)ccc(F)c2N1	239.3 to 239.6 °C
O=C1CCc2c(OCC3(O)CCN(c4ccc5c(c4)OC(F)(F)O5)CC3)ccc(F)c2N1	198.4 to 198.5 °C
O=C1CCc2c(OCC3(O)CCN(c4ccc5ccccc5n4)CC3)ccc(F)c2N1	198 to 199 °C
NOC1(COc2ccc(F)c3c2CCC(=O)N3)CCN(c2ncc(Cl)cc2Cl)CC1	147 to 149 °C
CCc1cc(N2CCC(O)(COc3ccc(F)c4c3CCC(=O)N4)CC2)c(F)cc1F	186.7 to 186.8 °C
O=C1CCc2c(OCC3(O)CCN(c4c(F)cccc4Cl)CC3)ccc(F)c2N1	212 to 213 °C
O=C1CCc2c(OCC3(O)CCN(c4c(F)cc(OC(F)F)cc4F)CC3)ccc(Cl)c2N1	143.6 to 143.7 °C
O=C1CCc2c(OC[C@]3(O)CCN(c4ccccc4F)C[C@H]3O)ccc(F)c2N1	177.7 to 178 °C
O=C1CCc2c(OCC3(O)CCN(c4ccc5occc5c4)CC3)ccc(F)c2N1	215.7 to 216 °C
O=C1CCc2c(OCC3(O)CCN(c4c(Cl)cccc4Cl)CC3)ccc(F)c2N1	203.6 to 203.8 °C
O=C1CCc2c(OCC3(O)CCN(c4ccc(OCC(F)(F)F)cc4F)CC3)ccc(Cl)c2N1	148.6 to 148.7 °C
O=C1CCc2c(OCC3(O)CCN(c4ccc(Oc5ccccc5)cc4)CC3)ccc(F)c2N1	186.9 to 187.2 °C
CCOc1cc(F)c(N2CCC(O)(COc3ccc(Cl)c4c3CCC(=O)N4)CC2)c(F)c1	180.6 to 181 °C
O=C1CCc2c(OC[C@]3(O)CCN(c4ccc(Cl)cc4F)C[C@H]3O)cc(F)c(F)c2N1 [Example 324]	192.6 to 193.4 °C
O=C1CCc2c(OC[C@]3(O)CCN(c4c(F)cc(OC(F)F)cc4F)C[C@H]3O)ccc(F)c2N1 (relative stereo) [Example 314]	167 to 169 °C
CCCc1ccc(N2CCC(O)(COc3ccc(F)c4c3CCC(=O)N4)CC2)c(Cl)c1	197.5 to 197.6 °C
O=C1CCc2c(OCC3(O)CCN(c4c(F)cc(Cl)cc4F)CC3)ccc(F)c2N1	225.5 to 225.6 °C
CCOc1cc(F)c(N2CC[C@@](O)(COc3ccc(F)c4c3CCC(=O)N4)[C@H](O)C2)c(F)c1 [Example 317]	176 to 178 °C
COc1ccc(N2CCC(O)(COc3ccc(F)c4c3CCC(=O)N4)CC2)c(F)c1	201.3 to 201.9 °C

Compound	melting point
Cc1cc(N2CCC(O)(COc3ccc(F)c4c3CCC(=O)N4)CC2)c(F)cc1Cl	208.6 to 208.8 °C
O=C1CCc2c(OCC3(O)CCN(c4cc5c(cc4F)OC(F)(F)O5)CC3)cc(F)c(F)c2N1	258.9 to 259 °C (dec.)
CCCc1cc(N2CCC(O)(COc3ccc(F)c4c3CCC(=O)N4)CC2)c(F)cc1Cl	196.5 to 196.6 °C
O=C1CCc2c(OCC3(O)CCN(c4cccc(C(F)(F)F)c4)CC3)ccc(F)c2N1	159.4 to 159.5 °C
O=C1CCc2c(OCC3(O)CCN(c4ccc(Cl)cc4[N+](=O)[O-])CC3)ccc(F)c2N1	188 to 189 °C
O=C1CCc2c(OCC3(O)CCN(c4c(F)cc(Br)cc4F)CC3)ccc(Cl)c2N1	195.3 to 195.4 °C
O=C1CCc2c(OCC3(O)CCN(c4ccc(OC(F)(F)F)cc4)CC3)ccc(F)c2N1	200.7 °C
O=C1CCc2c(OCC3(O)CCN(c4ncc(Br)cc4F)CC3)ccc(Cl)c2N1	231.2 to 233.5 °C
Cc1cc(N2CCC(O)(COc3ccc(Cl)c4c3CCC(=O)N4)CC2)c(F)cc1Cl	212.2 to 213.1 °C
O=c1ccc2c(OCC3(O)CCN(c4ccc(Cl)cc4F)CC3)ccc(F)c2[nH]1	255 to 256 °C
O=C1CCc2c(OCC3(O)CCN(c4ccc(C(F)(F)F)cc4)CC3)ccc(F)c2N1	216.1 °C
O=C1CCc2c(OC[C@]3(O)CCN(c4c(F)cc(Br)cc4F)C[C@@H]3O)ccc(F)c2N1 (relative stereo)	209 to 210 °C
Cc1cc(Cl)cc(Cl)c1N1CCC(O)(COc2ccc(F)c3c2CCC(=O)N3)CC1	251.6 to 251.9 °C
O=C1CCc2c(OCC3(O)CCN(c4ccc(F)cc4Cl)CC3)ccc(F)c2N1	208 °C
O=C1CCc2c(OCC3(O)CCN(c4ccc(OC(F)(F)F)cc4F)CC3)ccc(Cl)c2N1	149.7 to 149.9 °C
O=C1CCc2c(OCC3(O)CCN(c4cccc(Cl)c4)CC3)ccc(F)c2N1	169 to 170 °C
O=C1CCc2c(OC[C@]3(O)CCN(c4c(F)cc(Br)cc4F)C[C@H]3O)cc(F)c(F)c2N1	204.5 to 204.6 °C
CCCc1cc(N2CCC(O)(COc3ccc(Cl)c4c3CCC(=O)N4)CC2)c(F)cc1F	156.9 to 157 °C
O=C1CCc2c(OCC3(O)CCN(c4c(F)cc(Br)cc4F)CC3)cc(F)c(F)c2N1	233.1 to 233.2 °C
O=C1CCc2c(OCC3(O)CCN(c4nc5ccc(Cl)cc5o4)CC3)ccc(F)c2N1	249 to 250 °C
O=c1ccc2c(OC[C@]3(O)CCN(c4c(F)cc(Cl)cc4F)C[C@H]3O)ccc(F)c2[nH]1 (relative stereo) [Example 371]	232 °C
O=C1CCc2c(OC[C@]3(O)CCN(c4nc5ccc(Cl)cc5o4)C[C@H]3O)ccc(F)c2N1	219 to 220 °C
O=C1CCc2c(OCC3CCN(c4ncc(Cl)cc4Cl)CC3)ccc(Cl)c2N1	190 to 191 °C
O=C1CCc2c(OC[C@]3(O)CCN(c4ccc(Br)cc4F)C[C@H]3O)cc(F)c(F)c2N1 (relative stereo)	214 to 216 °C
O=C1CCc2c(OC[C@]3(O)CCN(c4ccc(OC(F)(F)F)cc4)C[C@H]3O)ccc(F)c2N1	196 to 197.1 °C
N#Cc1cc(F)ccc1N1CCC(O)(COc2ccc(F)c3c2CCC(=O)N3)CC1	206 to 206.9 °C
CCOc1cnc(N2CCC(O)(COc3ccc(F)c4c3CCC(=O)N4)CC2)c(Cl)c1	187.9 to 190.2 °C

Compound	melting point
O=C1CCc2c(OC[C@]3(O)CCN(c4ccc(Br)cc4F)C[C@H]3O)ccc(Cl)c2N1 [Example 271]	183 to 184 °C
O=C1CCc2c(OC[C@]3(O)CCN(c4c(F)cc(Br)cc4F)C[C@H]3O)cc(F)c(Cl)c2N1	199 to 199.6 °C
O=C1CCc2c(OCC3(O)CCN(c4ccc(Cl)cc4F)CC3)ccc(Cl)c2N1	222.9 to 223 °C
COC1(COc2ccc(F)c3c2CCC(=O)N3)CCN(c2ncc(Cl)cc2Cl)CC1	181 to 182 °C
COC(=O)NC1(COc2ccc(F)c3c2CCC(=O)N3)CCN(c2ncc(Cl)cc2Cl)CC1	183 °C
O=C1CCc2c(OC[C@]3(O)CCN(c4c(F)cc(Cl)cc4F)C[C@H]3O)cc(F)c(Cl)c2N1 (relative stereo) [Example 277]	201 to 204 °C
O=C1CCc2c(OCC3(O)CCN(c4cc(OCC(F)(F)F)c(Cl)cc4F)CC3)ccc(F)c2N1	200.6 to 201 °C
C[C@]1(O)CN(c2ncc(Cl)cc2Cl)CC[C@]1(O)COc1ccc(F)c2c1CCC(=O)N2 (relative stereo)	182.6 to 187.5 °C
O=C1CCc2c(OCC3(O)CCN(c4cc5c(cc4F)OC(F)(F)O5)CC3)cc(F)c(Cl)c2N1	249.4 to 250.5 °C (dec.)
O=C1CCc2c(OC[C@]3(O)CCN(c4ccc(F)cc4Cl)C[C@H]3F)ccc(F)c2N1 (relative stereo)	218 to 220 °C
O=C1CCc2c(OC[C@]3(O)CCN(c4ccc(Cl)cc4F)C[C@H]3O)cc(F)c(F)c2N1 (relative stereo) [Example 330]	220.5 to 221.3 °C
O=C1CCc2c(OCC3(O)CCN(c4cccc(Cl)c4Cl)CC3)ccc(F)c2N1	228.7 °C
COc1cc(N2CCC(O)(COc3ccc(F)c4c3CCC(=O)N4)CC2)ccc1Cl	222.6 to 222.7 °C
O=C1CCc2c(OC[C@]3(O)CCN(c4c(F)cc(Br)cc4F)C[C@H]3O)ccc(F)c2N1 (relative stereo) [Example 301]	191 to 193 °C
O=C1CCc2c(OCC3(O)CCN(c4cc(Cl)c(F)cc4Cl)CC3)ccc(F)c2N1	207.9 °C
CCOc1cccc(N2CCC(O)(COc3ccc(F)c4c3CCC(=O)N4)CC2)c1	128.1 °C
O=C1CCc2c(OCC3(O)CCN(c4c(F)cc(Br)cc4F)CC3)ccc(F)c2N1	217.7 to 217.9 °C
O=C1CCc2c(OCC3(O)CCN(c4cc(OC(F)(F)F)c(Cl)cc4Cl)CC3)ccc(F)c2N1	254.8 to 254.9 °C
O=C1CCc2c(OCC3(O)CCN(c4c(F)cc(OCC(F)(F)F)cc4F)CC3)ccc(F)c2N1	189.8 to 189.9 °C
COCCOCCOc1ccc(N2CCC(O)(COc3ccc(F)c4c3CCC(=O)N4)CC2)c(F)c1	128.7 to 130.7 °C
O=C1CCc2c(OCC3(O)CCN(c4ccc5sccc5c4)CC3)ccc(F)c2N1	209.5 to 210.2 °C
O=C1CCc2c(OCC3(O)CCN(c4cc(F)c(Cl)cc4F)CC3)ccc(F)c2N1	185.1 to 185.2 °C
O=C1CCc2c(OCC3(O)CCN(c4c(F)cc(F)cc4F)CC3)ccc(Cl)c2N1	175.6 to 176.1 °C
CCOc1cc(N2CCC(O)(COc3ccc(Cl)c4c3CCC(=O)N4)CC2)c(F)cc1Cl	228.1 to 229 °C
CCOc1cc(F)c(N2CCC(O)(COc3ccc(F)c4c3CCC(=O)N4)CC2)cc1OC	190.8 to 191.1 °C
